# Data as given in patent US6710075B2, “Therapeutic compounds and methods” (The Government of the State of Sarawak, Malaysia, priority 2000, dated 2004).
# Read-outs that look alike come from different tables or passages of the source.
# How the values were obtained:
# [1] = tested on: Tumour Necrosis Factor-α (TNF-α); test: Inhibition of TNF-α production by LPS-activated THP-1 cells (sandwich ELISA); format: cell-based, human; settings: 18 hours
# Excerpt: (a) Compounds A and B were identified from a bark sample of Aglaia leptantha through their ability to inhibit production of Tumour Necrosis Factor-α (TNF-α) by THP-1 human promonocytic leukemia cells (Tsuchiya, et al, Int. J. Cancer, 1980, 26(2):171-6) activated with lipopolysaccharide (LPS). Table 4 summarises the results comparing the activity of Compounds A and B for inhibition of TNF-α production to their effects on general cell metabolism measured using WST-1 reduction, DNA synthesis and protein synthesis assays for THP-1 cells. […] For comparison, the effects of Compounds A and B on A549 lung epithelial carcinoma cells (Leiber et al, Int. J. Cancer, 1976, 17(1)-62-70) were also measured and the data is also included in Table 4.
# A549 cells [2] = test: Effect on camptothecin- and paclitaxel-induced cytotoxicity, YOYO-1 exclusion; format: cell-based, human; settings: A549, 10 nM Compound A, 3 days, drugs at up to 2000-fold excess
# Experimental: A549 cells in 96 well plates were cultured for 3 days in the presence or absence of 10 nM Compound A together with the indicated concentrations of (A) camptothecin or (B) paclitaxel. Loss of membrane integrity was then assessed by the addition of the fluorescent DNA-binding dye YOYO-1 and the increased fluorescence accompanying cell death measured using a fluorescent plate reader.
# To further examine the cell cycle effects of Compound A a cytostatic concentration of this compound was combined together with other anti-cancer agents known to act at specific points in the cell cycle to see if Compound A could perturb their cell cycle-dependent effects. Cell viability was assayed after 3 days by measuring exclusion of the fluorescent DNA-binding dye YOYO-1. (Becker et al., Anal Biochem, 1994, 221(1):78-84). A549 cells were treated with 10 nM non-cytotoxic dose of Compound A in the presence of increasing concentrations of camptothecin and paclitaxel. Camptothecin is an inhibitor of DNA topoisomerase 1, an enzyme required for DNA replication, and results in pertubation of the S phase of the cell cycle with subsequent cell death due to activation of an S phase checkpoint (Darzynkiewicz et al., Ann N Y Acad Sci, 1996, 803:93-100). […]
# A549 cells [3] = test: DNA content analysis (cell cycle and viability) of A549 cells, 6 days; format: cell-based, human; settings: A549, 10 nM
# Experimental: A549 cells were cultured for 6 days with the indicated concentration of Compound A or 1 μM paclitaxel then collected and fixed in 70% ethanol prior to staining with propidium iodide and DNA content determined by flow cytometry. The numbers indicate the % of cells in the various cell cycle phases relative to all cells with ≧2N DNA content and also the % dead cells (ie. subdiploid≦2N cells) to the left of the marker that arose during the culture period.
# To help identify a potential mechanism for the effects of Compound A, DNA content analysis was performed to determine where in the cell cycle it exerted its effect (FIG. 4). […] This contrasts to the effects of paclitaxel a drug known to act selectively at the G2/M phases of the cell cycle (FIG. 4). As the concentration of Compound A was increased and its cytotoxic effects became evident the proportion of cells in the S and G2/M phases decreased with a corresponding rise in cells in G0/G1 phases. […] Thus, compared to THP-1 cells (see FIG. 2) higher concentrations of Compound A are required to inhibit progression through the G0/G1 phases of the cell cycle in A549 cells.
# THP-1 cells [4] = test: Acute general protein biosynthesis inhibition, [14C] leucine incorporation, THP-1 cells; format: cell-based, human; settings: 1 hour pretreatment + 2 hours label, read-out: IC50 Protein synthesis
# A549 cells [5] = test: Cell death as loss of membrane integrity, YOYO-1 uptake; format: cell-based; settings: Homo sapiens, 72 h; A549 cells, 3 days, YOYO-1 uptake; read-out: LC50 (the source's name)
# Excerpt: (§1) (a) Table 8 compares the cytostatic and cytotoxic effects of Compound A to three previously identified 1H-cyclopenta[b]benzofuran lignans that lack the dioxanyloxy group at the C6-position. The reference compounds are: Rocaglaol (Reference Compound 1) (Ohse et al., J Nat Prod, 1996, 59(7):650-52); 4′-Demethoxy-3′,4′-methylenedioxyrocaglaol (Reference Compound 2) and Methyl 4′-demethoxy-3′,4′-methylenedioxyrocaglate (Reference Compound 3) (Lee et al., Chem Biol Interact, 1998, 115(3):215-28).
# THP-1 cells [6] = test: as above; format: cell-based; settings: Homo sapiens, 72 h; THP-1 cells, 3 days, YOYO-1 uptake; read-out: LC50 (the source's name)
# Excerpt: as §1
# [7] = tested on: HL60 human promyelocytic leukemic cells; test: Monocytic differentiation, CD14 surface antigen expression by flow cytometry; format: cell-based; settings: 4 days
# Experimental: (§2) This is a morphology highly characteristic of mature macrophages and similar morphological effects were observed when the cells were treated with other known inducers of macrophage differentiation including interferon-γ (IFNγ) or phorbol 12-myristate 13-acetate (PMA). To investigate this further the effects of Compound A on HL60 human promyelocytic leukemic cells (Collins, et al, Nature, 1977, 270:347-9) were examined (Table 11). This widely used cell line is well characterised as a model of human myelomonocytic differentiation (Collins, Blood, 1987, 70(5):1233-44). In this experiment monocytic differentiation was quantitated by measuring CD14 surface antigen expression by flow cytometric analysis CD14, all LPS-binding protein, is expressed on the surface of cells of the myelomonocytic lineage and is normally expressed at very low levels in undifferentiated HL60 cells (Ferrero et al., Blood, 1983, 61(1):171-9).
# [8] = Body weight in the mouse xenograft tumour model; format: in vivo
# Experimental: The ability of Compound A to inhibit growth of human tumour cells in vivo was assessed using male athymic mice injected subcutaneously in the dorsal flank region with 2×10^6 PC3 human prostate tumour cells. Compound A administration (3 mg/kg) by intraperitoneal injection commenced after eight days once the PC3 tumour was palpable and continued three times a week until 29 days after the initial inoculation of the tumour cells. At this time all mice were killed and tumours excised and weighed.
# [9] = tested on: THP-1 monocytic leukemia cells; test: Differentiation of THP-1 leukemic cells, morphology by phase contrast microscopy; format: cell-based, human; settings: THP-1, 10 nM, prolonged exposure (4 days)
# Experimental: THP-1 cells were cultured for 4 days in the presence or absence of 10 nM Compound A as indicated. Where shown cells were also treated with IFNγ (100 ng/ml) (3 days) or with PMA (0.1 μM) (4 days) in the presence or absence of Compound A. Images are of cells visualised by phase contrast microscopy (magnification×200).
# as §2
smiles,measurement,setting,value
"COC(=O)[C@H]1[C@@H](O)[C@@]2(O)c3c(OC)cc(OC4OC(C(O)CO)COC4OC)cc3O[C@@]2(c2ccc(OC)cc2)[C@@H]1c1ccccc1 (single isomer, unassigned) [Compound A]",IC50,[1],60 nM
same,effect on cytotoxicity of camptothecin and paclitaxel,A549 cells [2],significantly reduced the cytotoxic effects of both camptothecin and paclitaxel
same,cell cycle distribution,A549 cells [3],a minor decline in the proportion of cells in the G0/G1 phases of the cell cycle with a concomitant increase in cells in the G2/M phases
same,IC50,"THP-1 cells [4]; Homo sapiens, THP-1, THP-1 cells",~30 nM
same,IC50,THP-1 cells [4]; THP-1 cells,27 nM
same,CC50,A549 cells [5],514 nM
same,CC50,THP-1 cells [6],15 nM
same,% cells expressing CD14,"[7]; HL60, 5 nM",3.3%
same,% cells expressing CD14,"[7]; HL60, 10 nM",5.7%
same,% cells expressing CD14,"[7]; HL60, 25 nM",46.0%
same,% cells expressing CD14,"[7]; HL60, 50 nM",43.0%
same,CD14 expression in viable HL60 cells,[7]; doses greater than 10 nM,significantly enhanced CD14 expression
same,body weight,"[8]; 3 mg/kg intraperitoneal three times a week, vs control",unaffected
same,decrease in mean body weight,"[8]; over the duration of the experiment, similar in control group",~12%
same,morphology (macrophage differentiation),[9],accumulation of cells that adhered to the plastic and exhibited numerous pseudopodia
